Source: patent publication US8304547B2, “Azolecarboxamide compound or salt thereof” (Astellas Pharma Inc., priority 2007, dated 2012)
Where a name gives a salt, the structure may show the parent alone.

Tests used:
[1] = biological target: T1, human trkA receptor (Homo sapiens, UniProt P04629); assay: trkA receptor inhibitory activity using a cell expressing a nerve growth factor receptor (NGF-dependent increase of calcium concentration in cells, FLIPR); format: cell-based; conditions: HEK293 cells stably expressing human trkA receptor; NGF-stimulated change in Ca concentration in cells
T1 construct: expressed in transfected cells
Experimental: Experiment to Measure trkA Receptor Inhibitory Activity Using a Cell Expressing a Nerve Growth Factor Receptor (trkA Receptor)
The trkA receptor inhibitory activity was measured by using the increase in a ligand-dependent calcium concentration in cells as an index. HEK293 cells (American Type Culture Collection) that stably expressed a human trkA receptor were dispensed onto a 96-well poly-D-lysine-coated plate (Product Name: Biocoat, PDL96W black/clear, by Nippon Becton Dickinson) to a 2×10^4 cells/well on the day before the experiment, and incubated overnight at 37° C. under 5% carbon dioxide (CO2) in a culture medium containing 10% fetal bovine serum (FBS) (Product Name: DMEM, Invitrogen Corporation). The culture medium was replaced by a loading buffer (a washing solution containing a 1.5 μM fluorescent-labelled indicator (Product Name: Fluo4-AM, Tong Ren Tang Technologies Co. Ltd.): a Hank's balanced salt solution (HBSS), 20 mM 2-[4-(2-hydroxyethyl)-1-piperazinyl]ethanesulfonic acid (HEPES)-sodium hydroxide (NaOH), 2.5 mM Probenecid, and 0.1% bovine serum albumin (BSA)), and left to stand at room temperature for 3 hours, and the cells were washed using a plate washer (Product Name: ELx405, BIO-TEK instrument Corporation) in which a washing solution had been set up. The compound that had been preliminarily dissolved and diluted in a washing solution was added thereto, and set up in a system for measuring a calcium (Ca) concentration in a cell (Product Name: FLIPR, Molecular Devices Corporation). After 5 minutes, a nerve growth factor (NGF, mouse derived 2.5S, Alomone) corresponding to 80% stimulation of a maximum response was added (to a final concentration of about 100 to 150 ng/ml) to measure the change in Ca concentrations in cells. The difference between a maximum value and a minimum value in the change of Ca concentrations in cells was determined, and kept as measurement data. With a response upon addition of NGF being set at 0%, and a response upon addition of a buffer being set at 100%, the concentration causing 50% inhibition was determined as an IC50 value. In the table, Ex represents Example Compound No. as below (the same applies hereinafter). From the results of this test, it was confirmed that the representative compounds of the present invention as below have a trkA receptor inhibitory action.

[2] = system: enhanced vascular permeability caused by Rat NGF; assay: Inhibitory activity on enhanced vascular permeability caused by Rat NGF (Evans blue); format: in vivo; conditions: Wistar female rat, 10 mg/kg oral, NGF intracutaneously 60 minutes after administration; for inhibition in vivo at 10 mg/kg: 1 h, read-out: Inhibitory rate
Experimental: Evaluation of the Inhibitory Activity of the Compound on Enhanced Vascular Permeability Caused by Rat NGF
The in vivo NGF inhibitory activity of the compound was examined. A Wistar female rat (Japan SLC) was forced to be orally administered with the compound (0.5% methylcellulose solution) 10 mg/3 ml/kg or a solvent (0.5% methylcellulose solution) 3 ml/kg. Under ether anesthesia performed at 60 minutes after administration, physiological saline or 1 μg/ml NGF (NGF, mouse derived 2.5 S, Alomone) was intracutaneously administered to the back at 50 μl/site, and then immediately a 1% Evans blue solution (dissolved in physiological saline) was administered through the caudal vein at 3 ml/kg. At a time point of 10 minutes after administration, the skin on the back was taken, and shaken in formamide for 16 hours. After shaking, an absorbance of Evans blue extracted in formamide was measured by an absorbance meter (wavelength: 620 nm), and the concentration was determined by a calibration curve method. A value obtained by subtracting the concentration of Evans blue at a site administered with physiological saline from the concentration of Evans blue at a site administered with NGF was determined as an NGF-dependent action, and an inhibitory rate of the compound group was determined with a group administered with a solvent being set at 100%. In this test, it was confirmed that the representative compounds as below of the present invention have an excellent inhibitory action on enhanced vascular permeability caused by Rat NGF.

[3] = system: rat having urinary frequency caused by cyclophosphamide (CPA); assay: Action on a rat having urinary frequency caused by cyclophosphamide (CPA); format: in vivo; conditions: CPA-treated Wistar female rat, value before administration = 100%
Experimental: Action of the Compound on a Rat Having Urinary Frequency Caused by Cyclophosphamide (CPA)
CPA (150 mg/5 ml/kg) was intraperitoneally administered to a Wistar female rat (Charles River Laboratories), and after 2 days, the experiment was carried out. It was forced to be orally administered with distilled water (30 ml/kg), and then confined in a metabolic cage, and urine weight and urination frequency were continuously measured for 1 hour. 3 or 10 mg/5 ml/kg of the compound (0.5% methylcellulose solution), or 5 ml/kg of a solvent (0.5% methylcellulose solution) was orally administered, and after 5 to 30 minutes, urination functions were measured after water-loading in the same manner as described above. A total urine weight was divided by the total urination frequency to determine an effective bladder capacity. With the value before administration of the compound being set at 100%, a rate of change in the effective bladder capacity caused by administration of the compound was determined.
In this test, at 2 days after CPA treatment, the effective bladder capacity had decreased (about 0.5 ml), indicating urinary frequency.

[4] = oral dose 10 mg/kg, evaluation period 5-65 minutes after administration
[5] = oral dose 10 mg/kg, evaluation period 15-75 minutes after administration

T1 sequence (P04629 33-796): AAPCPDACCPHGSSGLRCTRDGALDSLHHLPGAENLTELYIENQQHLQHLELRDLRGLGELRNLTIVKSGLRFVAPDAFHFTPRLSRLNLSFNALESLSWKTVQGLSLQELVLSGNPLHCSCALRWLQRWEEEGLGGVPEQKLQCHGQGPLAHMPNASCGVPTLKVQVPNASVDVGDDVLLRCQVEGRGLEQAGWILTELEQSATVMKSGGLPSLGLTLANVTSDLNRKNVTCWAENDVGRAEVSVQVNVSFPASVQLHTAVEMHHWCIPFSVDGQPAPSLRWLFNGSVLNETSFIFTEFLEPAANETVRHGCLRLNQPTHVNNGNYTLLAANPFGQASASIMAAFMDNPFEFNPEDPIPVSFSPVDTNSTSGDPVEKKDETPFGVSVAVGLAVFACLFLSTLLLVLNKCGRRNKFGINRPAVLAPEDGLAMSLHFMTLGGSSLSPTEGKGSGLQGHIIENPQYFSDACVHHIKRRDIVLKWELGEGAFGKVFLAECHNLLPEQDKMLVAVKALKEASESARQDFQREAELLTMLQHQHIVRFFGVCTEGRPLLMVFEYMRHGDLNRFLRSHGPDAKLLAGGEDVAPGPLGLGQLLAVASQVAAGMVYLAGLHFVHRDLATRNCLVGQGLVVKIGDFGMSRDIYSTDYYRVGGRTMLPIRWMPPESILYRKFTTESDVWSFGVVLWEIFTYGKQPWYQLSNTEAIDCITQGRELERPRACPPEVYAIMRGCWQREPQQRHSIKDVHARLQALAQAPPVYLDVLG

| Structure (SMILES) | IC50 [1] [nM] | inhibition in vivo at 10 mg/kg [2] [%] | other results |
| --- | --- | --- | --- |
| O=C(Nc1ccc(CO)cc1Cl)c1csc(N2CCC(Oc3ncccn3)CC2)n1 [Ex 3] | 5.4 |  |  |
| O=C(Nc1ccccc1C(=O)Nc1cccnc1)c1coc(N2CCOCC2)n1 [Ex 11] | 6.9 | 69 |  |
| CCOC1CCN(c2nc(C(=O)Nc3ccccc3C(=O)NC3CCOCC3)cs2)CC1 [Ex 28] | 27 | 92 |  |
| CN(CC1CCOCC1)c1nc(C(=O)Nc2ccccc2C(=O)Nc2cccnc2)cs1 [Ex 30] | 0.57 | 90 |  |
| COCCN(C)c1nc(C(=O)Nc2ccccc2C(=O)Nc2cccnc2)cs1 [Example 103] | 2.9 | 98 | Rate in cange of effective bladder capacity ([3]; oral dose 3 mg/kg, evaluation period 5-65 minutes after administration): 145% |
| CO[C@H]1CCN(c2nc(C(=O)Nc3ccccc3C(=O)Nc3cccnc3)co2)C1 [Example 206] | 6.8 |  | Rate in cange of effective bladder capacity [3, 4]: 159% |
| Nc1cc(-c2nc(C(=O)Nc3ccccc3C(=O)Nc3cccnc3)co2)ccn1 [Example 220] | 4.2 |  |  |
| COCCN(C)c1nc(C(=O)Nc2ccccc2C(=O)NC2CCOCC2)co1 [Example 361] | 35 | 78 | Rate in cange of effective bladder capacity [3, 4]: 144% |
| COCCNC(=O)c1cc(CN2CCOCC2)ccc1NC(=O)c1csc(N2CCC(Oc3ncccn3)CC2)n1 [Example 564] | 3.1 |  | Inhibitory rate [2]: 90%; Rate in cange of effective bladder capacity [3, 5]: 146% |
| O=C(Nc1ccncc1C(=O)NC1CCOCC1)c1csc(N2CCC(Oc3ncccn3)CC2)n1 [Example 602] | 1.1 |  | Rate in cange of effective bladder capacity [3, 5]: 152% |
| O=C(Nc1ccccc1S(=O)(=O)C(F)F)c1csc(N2CCC(Oc3ncccn3)CC2)n1 [Example 611] | 2.1 |  |  |
| CC(=O)c1cc(C2(C#N)CC2)ccc1NC(=O)c1csc(N2CCC(Oc3ncccn3)CC2)n1 [Example 628] | 1.7 |  |  |
| CN(CC1CCOCC1)c1nc(C(=O)Nc2ccc(CN3CCOCC3)cc2C(=O)NC2CCOCC2)cs1 [Example 930] | 6.8 |  | Inhibitory rate [2]: 86%; Rate in cange of effective bladder capacity [3, 5]: 170% |
| COCCNC(=O)c1cc(CN2CCO[C@@H](C)C2)ccc1NC(=O)c1csc(N2CC[C@H](OC)C2)n1 [Example 1181, N-(2-[(2-methoxyethyl)carbamoyl]-4-{[(2S)-2-methylmorpholin-4-yl]methyl}phenyl)-2-[(3S)-3-methoxypyrrolidin-1-yl]-1,3-thiazole-4-carboxamide fumarate] | 12 | 81 |  |
| COCCNC(=O)c1cc(CN2CCOCC2(C)C)ccc1NC(=O)c1csc(N2CC[C@H](OC)C2)n1 [Example 1343] | 9.9 | 87 |  |
| COCCNC(=O)c1cc(CN2CCOCC2)ccc1NC(=O)c1csc(N2CC(OC)C2)n1 [Example 1435] | 36 | 71 |  |
| COC[C@@H](C)NC(=O)c1cc(CN2CCOCC2)ccc1NC(=O)c1csc(N2CC(OC)C2)n1 [Example 1439] | 25 | 76 |  |
| CCOCc1ccc(NC(=O)c2csc(N3CC[C@H](OC)C3)n2)c(C(=O)NCCOC)c1 [Example 1449] | 8.8 | 76 |  |
| COCCNC(=O)c1cc(CN2CCOCC2)ccc1NC(=O)c1csc(N(C)CCOC)n1 [Example 1469] | 9.8 | 90 |  |
| COCCNC(=O)c1cc(CN2CCOCC2)ccc1NC(=O)c1csc(N2CC[C@H](F)C2)n1 [Example 1470] | 18 | 76 |  |
